Laboratory results from ChEMBL document CHEMBL1795337, “Sulfonamides incorporating boroxazolidone moieties are potent inhibitors of the transmembrane, tumor-associated carbonic anhydrase isoforms IX and XII” (Bioorg Med Chem Lett, 2011).

target: Carbonic anhydrase 9 (Homo sapiens, UniProt Q16790)
Description: Inhibition of human recombinant catalytic domain of carbonic anhydrase 9 preincubated for 15 mins by stopped-flow CO2 hydration assay

SMILES | Ki [nM]
CCB(CC)OC(=O)[C@@H](N)CCCCNC(=S)Nc1ccc(S(N)(=O)=O)cc1Br | 92
CCB(CC)OC(=O)[C@@H](N)CCCCNC(=S)NCc1ccc(S(N)(=O)=O)cc1 | 9.5
CCB(CC)OC(=O)[C@@H](N)CCCCNC(=S)NCCc1ccc(S(N)(=O)=O)cc1 | 9.6
CCB(CC)OC(=O)[C@@H](N)CCCCNC(=S)Nc1ccc(S(=O)(=O)NCCc2ccc(S(N)(=O)=O)cc2)cc1 | 9
CCB(CC)OC(=O)[C@@H](N)CCCCNC(=S)Nc1ccc(S(=O)(=O)NCc2ccc(S(N)(=O)=O)cc2)cc1 | 7.7
CCB(CC)OC(=O)[C@@H](N)CCCCNC(=S)Nc1ccc(S(=O)(=O)Nc2nnc(S(N)(=O)=O)s2)cc1 | 8.6

Other lines, results leading:

Ki [nM] | SMILES
9.3 | CCB(CC)OC(=O)[C@@H](N)CCCCNC(=S)Nc1ccc(S(N)(=O)=O)cc1
91 | CCB(CC)OC(=O)[C@@H](N)CCCCNC(=S)Nc1ccc(S(N)(=O)=O)cc1Cl
89 | CCB(CC)OC(=O)[C@@H](N)CCCCNC(=S)Nc1ccc(S(N)(=O)=O)cc1F
9.5 | CCB(CC)OC(=O)[C@@H](N)CCCCNC(=S)Nc1cccc(S(N)(=O)=O)c1
